Data set [1] can be described thus: in vivo. As to conditions: male, C57BL/6, mouse, 10 nmol/kg. An excerpt:
(§1) Selected test peptides (n=8) were profiled for pharmacokinetic (PK) properties in the mouse after single intravenous (i.v.) or subcutaneous (s.c.) dose. A subset (n=4) meeting the acceptance criteria was subsequently profiled in the dog (single i.v. dose) and non-human primate (single i.v. and s.c. dose). […] Low-binding plasticware containers were used during preparation and sample handling to avoid non-specific binding.
After dosing, PK samples were collected from the dorsal metatarsal vein. Blood of each sample was transferred into plastic micro centrifuge tubes containing EDTA-K2, inverted several times for proper mixing of contents and then placed on wet ice. The blood samples were centrifuged at 4° C. to obtain plasma and stored at −75° C. prior to analysis.
(§2) Samples analysis: Samples were analyzed by LC-MS/MS. Calibration standards were injected at the beginning and end of each batch and the determined concentration for each prepared standard was used to construct a calibration curve. Plasma and dose aliquot sample concentrations were determined from the plasma calibration curve.
(§3) Data analysis: Plasma concentration data was analyzed by non-compartmental analysis (NCA) using Phoenix Winnonlin v. 8.3.3.33. Linear trapezoidal rule was used for increasing values and log trapezoidal rule was used for decreasing values, applying uniform weighting for lambda_z calculations. Subcutaneous bioavailability was calculated as the ratio AUC(s.c.)0-inf/AUC(i.v.)0-inf. Reported values (Table 18) represent the mean of the individual estimates.

For data set [2], the target named is human glucagon receptor (hGCGR) (Homo sapiens, UniProt P47871). The data set is described as follows: cAMP production (HTRF) in CHO cells expressing hGCGR. Also on record: expressed in transfected cells. Type of data set: cell-based. As to conditions: Table 7, peptides modified at position 20; cAMP in CHO hGCGR cells; geometric mean; read-out: hGluc-R EC50. In short, it runs like this:
(§4)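 Read-out: HTRF cAMP (anti-cAMP cryptate donor, cAMP-d2 acceptor in conjugate/lysis buffer), converted to % Delta F and fitted by 4-parameter logistic for EC50. Cell densities were 1×10^5 cells/mL (hGLP-1R) or 2×10^5 cells/mL (hGCGR). Stimulation lasted 30 min at room temperature.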

The test system of data set [3] is wildtype (WT) mice. Briefly: Glucose change in wildtype mice. It is filed as in vivo, mouse. As to conditions: s.c., 120 min vs 0 min, somatostatin pretreatment (octreotide) 30 min prior to cpd. In short, it runs like this:
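Wildtype mice aged 8-14 weeks, fasted 2 h, sometimes pre-treated with octreotide 10 mg/kg 30 min before peptide injection. Blood glucose by glucometer at -30, 0, 30, 60, 120, 180, 240 and 360 min; n=4-8/group, mice reused up to 3 times with ≥1 week wash-out.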

Data set [4] can be described thus: in vivo. As to conditions: male, cynomolgus monkey, 10 nmol/kg.
Excerpt: as §1
Non-human primate: PK was studied in non-naïve male cynomolgus monkeys. After dosing, PK samples were collected from the femoral vein. Blood of each sample was transferred into plastic micro centrifuge tubes containing EDTA-K2, inverted several times for proper mixing of contents and then placed on wet ice. The blood samples were centrifuged under refrigerated (2° C. to 8° C.) conditions within 30 minutes following sample collection to obtain plasma and stored at −60° C. to −90° C.° C. prior to analysis.
as §2, §3

Data set [5] has as its target human GLP-1 receptor (hGLP-1R) (Homo sapiens, UniProt P43220). The data set is described as follows: cAMP production (HTRF) in CHO cells expressing hGLP-1R. Type of data set: cell-based. Also on record: expressed in transfected cells. An outline of the steps: as §4
The nature of data set [6]: Mouse acute food intake study. Type of data set: in vivo. As to conditions: male C57Bl/6 mice, s.c., cumulative food intake at 24 hr vs vehicle. An outline of the steps: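 Single-housed male C57Bl/6 mice (8-9 weeks on arrival), chow-fed, acclimated and sham-dosed ≥2 times, were fasted 6-8 h, then given vehicle or peptide subcutaneously at 5 mL/kg 1-2 h before lights out. Food intake was recorded automatically over 48 h and analysed as cumulative intake.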

Data set [7] can be described thus: in vivo. The settings on record: male, Beagle, dog, iv, 10 nmol/kg.
Excerpt: as §1
Blood of each sample was transferred into plastic micro centrifuge tubes containing EDTA-K2, inverted several times for proper mixing of contents and then placed on wet ice.
as §2, §3

In data set [8] the test system is GLP-1R knockout (KO) mice. Briefly: Glucose change in GLP-1R knockout mice. It is filed as in vivo, mouse. As to conditions: GLP-1R KO mice, s.c., 120 min vs 0 min, somatostatin pretreatment (octreotide) 30 min prior to cpd. In short, it runs like this:
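GLP-1R knockout mice (n=4-8/group, sorted by body weight) were fasted 2 h, and in some studies pretreated with octreotide 10 mg/kg 30 min before peptide injection. Mice were reused up to 3 times with at least 1-week wash-out.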

Data set [9] in a line: Proteolytic resistance to FasSSGF containing porcine pancreatic pepsin. The settings on record: pig, simulated gastric fluid, FasSSGF with pepsin, 37° C., read-out: % intact peptide over time (min). It is filed as in vitro ADME. An outline of the steps:
(§5)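 Peptide (250 μM stock in FasSSGF) mixed 1:1 with porcine pepsin stock (0.5 mg/mL in FasSSGF) and held at 37° C; samples at 0, 5, 10, 15 and 30 min quenched in ammonium bicarbonate, pH 8. Intact peptide remaining estimated by RP-HPLC peak area, UV 210 nm.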

Data set [10] concerns the target T1, porcine pancreatic pepsin (Sus scrofa, UniProt P00791).
T1 construct: purchased Sigma P7012
The data set is described as above. It is filed as in vitro ADME. The settings on record: FasSSGF with pepsin, 37° C., 0 min. In short, it runs like this: as §5

Data set [11] has as its system Pancreatin. Briefly: Proteolytic resistance to FasSSIF/Pancreatin. Type of data set: in vitro ADME. The settings on record: FasSSIF/Pancreatin, 37° C., 0 min. An outline of the steps:
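Peptide (1.0 mg) in pre-warmed FasSSIF, proteolysis started with fresh FasSSIF/USP Pancreatin and held at 37 °C. Aliquots at 0, 5, 10, 15, 30 min quenched in 10% TFA; remaining intact peptide estimated by RP-HPLC peak area, UV 210 nm.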

We go through 2 compounds from patent US20250353891A1 (MEDIMMUNE LIMITED, priority 2022, published 2025).

Values joined by “and” are separate entries in the source; they are usually repeats but may differ in a detail not shown here. Equal values may be shown once. Starred links: 1 amine or outer side, 2 acyl side, 3 side chain; linkers in the order of their positions; H or OH if unused. Non-standard residues stand in square brackets, D forms with d. Residues, ends and D or L forms follow the SMILES beside them. Groups on a side chain read outwards from the residue. *: point of attachment. C18 diacid = O=C(O)CCCCCCCCCCCCCCCCC(=O)*; γGlu = O=C(O)[C@H](CCC(=O)[*:2])N[*:1]; αMeF = C[C@](N)(Cc1ccccc1)C(=O)O; AEEA = NCCOCCOCC(=O)O; Aib = CC(C)(N)C(=O)O

Chain of human GLP-1 receptor (hGLP-1R) (P43220 24-463): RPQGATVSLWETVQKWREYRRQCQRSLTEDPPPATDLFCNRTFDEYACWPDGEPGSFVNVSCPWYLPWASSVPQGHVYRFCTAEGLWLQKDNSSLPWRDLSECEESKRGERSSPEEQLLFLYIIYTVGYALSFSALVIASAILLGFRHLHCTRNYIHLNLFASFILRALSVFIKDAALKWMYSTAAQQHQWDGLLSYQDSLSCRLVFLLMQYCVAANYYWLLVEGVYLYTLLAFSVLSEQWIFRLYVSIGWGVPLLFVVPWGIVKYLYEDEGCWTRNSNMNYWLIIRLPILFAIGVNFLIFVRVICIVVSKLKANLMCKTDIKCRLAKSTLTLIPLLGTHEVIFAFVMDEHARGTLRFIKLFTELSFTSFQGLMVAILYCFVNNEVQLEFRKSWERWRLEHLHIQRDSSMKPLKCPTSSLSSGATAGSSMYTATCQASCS
T1 sequence (P00791 60-385): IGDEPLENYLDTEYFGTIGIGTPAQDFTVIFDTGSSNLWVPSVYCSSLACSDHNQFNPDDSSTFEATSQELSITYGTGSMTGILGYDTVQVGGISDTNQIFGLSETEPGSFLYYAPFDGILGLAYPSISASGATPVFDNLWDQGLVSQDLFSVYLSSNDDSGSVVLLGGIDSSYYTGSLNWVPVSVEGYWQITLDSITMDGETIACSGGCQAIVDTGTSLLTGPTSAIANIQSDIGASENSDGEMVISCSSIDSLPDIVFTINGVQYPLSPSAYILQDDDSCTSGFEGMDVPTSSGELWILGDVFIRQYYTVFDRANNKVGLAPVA
Chain of human glucagon receptor (hGCGR) (P47871 26-477): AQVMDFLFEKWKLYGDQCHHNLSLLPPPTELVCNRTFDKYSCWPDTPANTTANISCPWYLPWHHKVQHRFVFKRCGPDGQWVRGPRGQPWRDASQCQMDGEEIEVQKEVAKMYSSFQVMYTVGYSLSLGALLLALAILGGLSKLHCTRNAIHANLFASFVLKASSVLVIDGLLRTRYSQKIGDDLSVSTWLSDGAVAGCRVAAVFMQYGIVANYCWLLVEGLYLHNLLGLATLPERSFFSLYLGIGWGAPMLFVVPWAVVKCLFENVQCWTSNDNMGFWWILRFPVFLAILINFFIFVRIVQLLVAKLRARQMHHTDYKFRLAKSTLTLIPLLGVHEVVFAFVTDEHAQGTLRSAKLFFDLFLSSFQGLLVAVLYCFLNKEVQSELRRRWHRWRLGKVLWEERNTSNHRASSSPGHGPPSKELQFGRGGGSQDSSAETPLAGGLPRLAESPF

For the compound `CC[C@H](C)[C@H](NC(=O)C(C)(C)NC(=O)[C@H](CCC(N)=O)NC(=O)[C@@H](NC(=O)[C@](C)(Cc1ccccc1)NC(=O)[C@H](CC(=O)O)NC(=O)[C@H](CCCCNC(=O)COCCOCCNC(=O)COCCOCCNC(=O)CC[C@H](NC(=O)CCCCCCCCCCCCCCCCC(=O)O)C(=O)O)NC(=O)[C@H](C)NC(=O)[C@H](C)NC(=O)[C@H](CCCNC(=N)N)NC(=O)[C@H](CO)NC(=O)[C@H](CC(=O)O)NC(=O)[C@H](CC(C)C)NC(=O)[C@](C)(Cc1ccccc1)NC(=O)[C@H](CCCCN)NC(=O)[C@H](CO)NC(=O)[C@@H](NC(=O)[C@H](CC(=O)O)NC(=O)[C@H](CO)NC(=O)[C@@H](NC(=O)[C@](C)(Cc1ccccc1)NC(=O)[C@H](CO)NC(=O)CNC(=O)[C@H](Cc1c[nH]cn1)NC(=O)C(C)(C)NC(=O)[C@@H](N)Cc1c[nH]cn1)[C@@H](C)O)C(C)C)C(C)C)C(=O)N[C@@H](C)C(=O)N[C@@H](CC(N)=O)C(=O)N[C@H](C(N)=O)[C@@H](C)O` [Peptide 224, H-Aib-H-G-S-αMePhe-T-S-D-V—S-K-αMePhe-L-D-S-R-A-A-K (E-(O2Oc)-(O2Oc)-γE-C18diacid) 20-D-αMePhe-V-Q-Aib-I-A-N-T-amide] (H-H[Aib]HGS[αMeF]TSDVSK[αMeF]LDSRAAK([AEEA-AEEA-γGlu-C18 diacid])D[αMeF]VQ[Aib]IANT-NH2; N-terminus assumed), the bioavailability in data set [1] worked out at 109%; in data set [4] it was 95%. Also, the figures for the half-life in [1] (iv), in data set [4] (iv) and in data set [7] were 9.5 h, 100 h and 75 h, respectively. In addition, the EC50 in [2] came out at 28.7 pM; in data set [5] (Table 7, peptides modified at position 20, cAMP in CHO hGLP-1R cells, geometric mean, read-out: hGLP-1R EC50) it was 32.1 pM. Moreover, the “WT % glucose change 120 min” value in data set [3] (3 nmol/kg) was −46.3%; in data set [3] (10 nmol/kg), −40.0%. For the same compound, the “% Relative Potency Ratio” value in data set [5] (Table 7, % GLP-1R activity relative to GLP-1 / % GlucR activity relative to glucagon) was determined as 1.8. Further, the “24 hr % Vehicle Food Intake” value in data set [6] (dose 1 nmol/kg) was 91.3%; in [6] (dose 3 nmol/kg) it was 76.6%; in data set [6] (dose 10 nmol/kg) it was 66.5% and 72.5%. For the same compound, the “GLP-1R KO % glucose change 120 min” value in data set [8] (3 nmol/kg) is recorded as 100.3%; in [8] (10 nmol/kg), 132.3%.
On to `CC[C@H](C)[C@H](NC(=O)[C@H](Cc1ccccc1)NC(=O)[C@H](CCC(=O)O)NC(=O)[C@H](CCCCNC(=O)COCCOCCNC(=O)COCCOCCNC(=O)CC[C@H](NC(=O)CCCCCCCCCCCCCCCCC(=O)O)C(=O)O)NC(=O)[C@H](C)NC(=O)[C@H](C)NC(=O)[C@H](CCC(N)=O)NC(=O)CNC(=O)[C@H](CCC(=O)O)NC(=O)[C@H](CC(C)C)NC(=O)[C@H](Cc1ccc(O)cc1)NC(=O)[C@H](CO)NC(=O)[C@H](CO)NC(=O)[C@@H](NC(=O)[C@H](CC(=O)O)NC(=O)[C@H](CO)NC(=O)[C@@H](NC(=O)[C@H](Cc1ccccc1)NC(=O)[C@@H](NC(=O)CNC(=O)[C@H](CCC(=O)O)NC(=O)C(C)(C)NC(=O)[C@@H](N)Cc1cnc[nH]1)[C@@H](C)O)[C@@H](C)O)C(C)C)C(=O)N[C@@H](C)C(=O)N[C@@H](Cc1c[nH]c2ccccc12)C(=O)N[C@@H](CC(C)C)C(=O)N[C@H](C(=O)N[C@@H](CCCNC(=N)N)C(=O)NCC(=O)N[C@@H](CCCNC(=N)N)C(=O)NCC(=O)O)C(C)C` [semaglutide, reference compound], for which the remaining at 5 min, 125 µM in data set [9] (5 min) is 15%. In addition, the remaining at 10 min, 125 µM in data set [9] (10 min) was 13%. Also, the remaining at 0.25 h, 125 µM in data set [9] (15 min) was 12%. Besides, the remaining at 0.5 h, 125 µM in data set [9] (30 min) was 14%. The “% intact peptide over time (min)” value in data set [10] and in [11] was 100% throughout.

One may read the half-life as how long it takes for the measured level to halve. For orientation: EC50 means the concentration needed to bring the measured effect to its halfway point.
